Experimental data: patent US11236055B2 (Venenum Biodesign, LLC, priority 2016, dated 2022)

system: DIO mice; test: Food intake after multiple days of dosing in DIO mice; format: in vivo, mouse; conditions: DIO mice on high fat diet, oral BID for 12 days
Method: Monitoring of Food Intake after Multiple Days of Dosing Compounds
Compounds of the present invention were dosed for multiple days and were evaluated for their ability to cause mice to have a lower food intake. Mice were dosed compounds for 12 days as per the protocol in Example 66.
The HFD (Research Diets, D12492, 60% fat kcal) is placed at the bottom of the cage of a singly-housed animal. The remaining food in each cage is recovered and weighed again at the same time of day 3 or 4 days later. The difference in the starting and ending food weight represents the amount of food consumed. Daily food intake is calculated by averaging over a 3 or 4 day period every week.

Structure (SMILES) | food intake
CCc1cnccc1-c1cccc([C@H](C)N(CCCC(=O)NCCS(=O)(=O)NCC(=O)O)S(=O)(=O)c2ccccc2C(F)(F)F)c1 [Compound 20BG] | no significant effect

system: not listed separately; test: Bile weight after multiple days of dosing in DIO mice; format: in vivo, mouse; conditions: 12 days of dosing, about 6 h after final dose
Method: No Bile Weight Increase after Multiple Days of Dosing Compounds
Compounds of the present invention were dosed for multiple days and evaluated for an increase in bile weight within the gallbladder. In this example, the protocol from Example 66 was utilized. In week 2 of the study, mice were euthanized and bile was removed from the gallbladder about 6 hours after the final dose and the bile was weighed to approximate the volume of bile contained within the bladder.

bile weight / gallbladder size | Structure (SMILES)
does not show an increase | CCc1cnccc1-c1cccc([C@H](C)N(CCCC(=O)NCCS(=O)(=O)NCC(=O)O)S(=O)(=O)c2ccccc2C(F)(F)F)c1 [Compound 20BG]

system: GLP-1 levels in the blood of male C57BL/6NTac mice; test: In vivo mouse GLP-1 study, single oral dose; conditions: 10 mg/kg oral, 4 h post-dose, sitagliptin 3 mg/kg pre-dose
Method: In Vivo Mouse GLP-1 Study
12-14 week old male C57BL/6NTac (Taconic) mice were divided into experimental groups (n=6) by randomizing mice based on pre-fasting body weight and then were fasted overnight. On experiment day, all mice were dosed with 3 mg/kg sitagliptin via oral gavage exactly 1 hour before oral gavage dosing of vehicle (0.5% carboxymethylcellulose (medium viscosity)+0.25% Tween-80) or 10 mg/kg compound in vehicle. Four (4) hours following the administration of compound, blood was collected via cardiac puncture. For the GLP-1 assay, 200-250 μL of blood was placed in an EDTA K^2+ tube containing 5 μL of 40 mg/mL aprotinin (Sigma A1153) and 1 μL of 10 mM sitagliptin (Sigma S8576) and plasma was separated by centrifugation. Plasma samples were stored at −20° C. until analysis. The active form of GLP-1 [GLP-1 (7-36) amide] was analyzed using Meso Scale Discovery System according to the manufacturer's directions (item number K150HYC). Values of p<0.05 are considered statistically significant.
The active GLP-1 assay results from the mice in vivo study are shown in Table 36 and FIG. 1, expressed as fold change over vehicle.

Structure (SMILES) | Fold Increase (active GLP-1, fold change over vehicle)
Cc1cnccc1-c1cccc(C(C)(C)N(CCCC(=O)NC[C@@H](O)[C@H](O)[C@@H](O)[C@@H](O)CO)S(=O)(=O)c2cccc(Cl)c2C)c1 [Compound 20AF, 4-(3-chloro-2-methyl-N-(2-(3-(3-methylpyridin-4-yl)phenyl)propan-2-yl)phenylsulfonamido)-N-((2R,3S,4S,5S)-2,3,4,5,6-pentahydroxyhexyl)butanamide] | 0.8
CCc1cnccc1-c1cccc([C@H](C)N(CCCC(=O)NCCS(=O)(=O)O)S(=O)(=O)c2ccccc2C(F)(F)F)c1 [Compound 20BF, (S)-2-(4-(N-(1-(3-(3-ethylpyridin-4-yl)phenyl)ethyl)-2-(trifluoromethyl)phenylsulfonamido)butanamido)ethanesulfonic acid] | 2.9
CCc1cnccc1-c1cccc([C@H](C)N(CCCC(=O)NCCCS(=O)(=O)O)S(=O)(=O)c2cccc(Cl)c2C)c1 [Compound 20AM, (S)-3-(4-(3-chloro-N-(1-(3-(3-ethylpyridin-4-yl)phenyl)ethyl)-2-methylphenylsulfonamido)butanamido)propane-1-sulfonic acid] | 2.3
Cc1cnccc1-c1cccc([C@H](C)N(CCCC(=O)NCCS(=O)(=O)NCCCC(=O)O)S(=O)(=O)c2ccccc2C(F)(F)F)c1 [Compound 20BK] | 1.3
Cc1cnccc1-c1cccc([C@H](C)N(CCCCC(=O)NCCS(=O)(=O)NCC(=O)O)S(=O)(=O)c2ccccc2C(F)(F)F)c1 [Compound 20BL, (S) 2-(4-(N-(1-(3-(3-methylpyridin-4-yl)phenyl)ethyl)-2-(trifluoromethyl)phenylsulfonamidopentanamido)ethylsulfonamido)acetic acid] | 2.1
Cc1cnccc1-c1cccc(C(C)(C)N(CCCC(=O)NCC(=O)O)S(=O)(=O)c2cccc(Cl)c2C)c1 [Compound 21AB, 2-(4-(3-chloro-2-methyl-N-(2-(3-(3-methylpyridin-4-yl)phenyl)propan-2-yl)phenylsulfonamido)butanamido)acetic acid] | 3.0
Cc1cnccc1-c1cccc(C(C)(C)N(CCCC(=O)NCCS(=O)(=O)NCC(=O)O)S(=O)(=O)c2cccc(Cl)c2C)c1 [Compound 20AW, (4-(3-chloro-2-methyl-N-(2-(3-(3-methylpyridin-4-yl)phenyl)propan-2-yl)phenylsulfonamido)-N-butanamidoethylsulfonamido)acetic acid] | 1.1
Cc1cnccc1-c1cccc(C(C)(C)N(CCCC(=O)NCCS(=O)(=O)O)S(=O)(=O)c2ccccc2C(F)(F)F)c1 [Compound 20AA, 2-(4-(N-(2-(3-(3-methylpyridin-4-yl)phenyl)propan-2-yl)-2-(trifluoromethyl)phenylsulfonamido)butanamido)ethanesulfonic acid] | 3.3
CCc1cnccc1-c1cccc(C(C)(C)N(CCCC(=O)NCCS(=O)(=O)O)S(=O)(=O)c2cccc(Cl)c2C)c1 [Compound 20AC, 2-(4-(3-chloro-N-(2-(3-(3-ethylpyridin-4-yl)phenyl)propan-2-yl)-2-methylphenylsulfonamido)butanamido)ethanesulfonic acid] | 1.2
CCc1cnccc1-c1cccc([C@H](C)N(CCCC(=O)NCCS(=O)(=O)O)S(=O)(=O)c2cccc(Cl)c2C)c1 [Compound 21AQ, (S)-2-(4-(3-chloro-N-(1-(3-(3-ethylpyridin-4-yl)phenyl)ethyl)-2-methylphenylsulfonamido)butanamido)ethanesulfonic acid] | 2.0
CCc1cnccc1-c1cccc([C@H](C)N(CCCC(=O)NCCS(=O)(=O)NCC(=O)O)S(=O)(=O)c2cccc(Cl)c2C)c1 [Compound 21AT, (S) 2-(3-(4-(3-chloro-2-methyl-N-(1-(3-(3-ethylpyridin-4-yl)phenyl)ethyl)phenylsulfonamido)butanamido)ethylsulfonamido)acetic acid] | 4.2
CCc1cnccc1-c1cccc([C@H](C)N(CCCC(=O)NCCS(=O)(=O)NCC(=O)O)S(=O)(=O)c2ccccc2C(F)(F)F)c1 [Compound 20BG] | 4.4
Cc1cnccc1-c1cccc(C(C)(C)N(CCCC(=O)NCCCS(=O)(=O)O)S(=O)(=O)c2cccc(Cl)c2C)c1 [Compound 20AD, 3-(4-(3-chloro-2-methyl-N-(2-(3-(3-methylpyridin-4-yl)phenyl)propan-2-yl)phenylsulfonamido)butanamido)propane-1-sulfonic acid] | 1.9
CCc1cnccc1-c1cccc(C(C)(C)N(CCCC(=O)NCCS(=O)(=O)O)S(=O)(=O)c2ccccc2C(F)(F)F)c1 [Compound 20, 2-(4-(N-(2-(3-(3-ethylpyridin-4-yl)phenyl)propan-2-yl)-2-(trifluoromethyl)-phenylsulfonamido)butanamido)ethanesulfonic acid] | 1.0

system: GLP-1 plasma level in DIO mice; test: GLP-1 levels after multiple days of dosing in DIO mice; format: in vivo, mouse; conditions: 12 days BID oral, in combination with linagliptin, 6 h after final dose
Method: GLP-1 Levels after Multiple Days of Dosing Compounds
Compounds of the present invention were dosed for multiple days and were evaluated to determine if they produce sustained GLP-1 levels. In this example, the protocol from Example 66 was utilized. In week 2 of the study, mice were euthanized and blood was collected 6 hours after the final dose of compound. For the GLP-1 assay, 200-250 μL of blood was placed in an EDTA K^2+ tube containing 5 μL of 40 mg/mL aprotinin (Sigma A1153) and 1 μL of 10 mM sitagliptin (Sigma S8576) and plasma was separated by centrifugation. Plasma samples were stored at −20° C. until analysis. The active form of GLP-1 [GLP-1 (7-36) amide] was analyzed using Meso Scale Discovery System according to the manufacturer's directions (item number K150HYC). Values of p<0.05 are considered statistically significant.

Structure (SMILES) | GLP-1 plasma level versus vehicle
CCc1cnccc1-c1cccc([C@H](C)N(CCCC(=O)NCCS(=O)(=O)NCC(=O)O)S(=O)(=O)c2ccccc2C(F)(F)F)c1 [Compound 20BG] | significantly increased

target: T1, mouse TGR5 receptor (Mus musculus, UniProt Q80SS6); test: Mouse TGR5 cAMP production assay (luminescent, DiscoveRx cAMP XS+); format: cell-based; conditions: HEK293-EBNA cells overexpressing mouse TGR5, luminescent cAMP XS+; coded A-D; read-out: Mouse TGR5 Lum. cAMP Activity (EC50)
T1 construct: expressed in transfected cells; host or cells: HEK293-EBNA (293 c18, ATCC CRL10852), Hygromycin B selection
T1 sequence (Q80SS6 1-329): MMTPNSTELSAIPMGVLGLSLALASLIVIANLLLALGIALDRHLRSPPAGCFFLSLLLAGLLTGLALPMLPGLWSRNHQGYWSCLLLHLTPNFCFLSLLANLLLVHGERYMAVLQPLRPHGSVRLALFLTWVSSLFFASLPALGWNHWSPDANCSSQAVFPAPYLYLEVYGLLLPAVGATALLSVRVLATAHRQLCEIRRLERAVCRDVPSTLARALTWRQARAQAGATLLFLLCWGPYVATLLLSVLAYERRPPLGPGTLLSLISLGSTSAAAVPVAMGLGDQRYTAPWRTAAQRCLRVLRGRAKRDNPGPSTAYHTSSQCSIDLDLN
How it was run: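 HEK293-EBNA cells stably expressing mouse TGR5 were suspended in serum-free DMEM with 500 μM IBMX and preincubated 20 min with cAMP antibody. They were then exposed to half-log compound dilutions for 1 h at room temperature. cAMP measured by enzyme-fragment complementation luminescence after overnight incubation; EC50 derived.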

EC50 | Structure (SMILES)
< 100 nM | CCc1cnccc1-c1cccc(C(C)(C)NS(=O)(=O)c2ccccc2C(F)(F)F)c1 [Compound 5, N-(2-(3-(3-ethylpyridin-4-yl)phenyl)propan-2-yl)-2-(trifluoromethyl)benzenesulfonamide]
< 100 nM | Cc1cnccc1-c1cccc(C(C)(C)NS(=O)(=O)c2cccc(C(F)(F)F)c2)c1 [Compound 5AA, N-(2-(3-(3-methylpyridin-4-yl)phenyl)propan-2-yl)-3-(trifluoromethyl)benzenesulfonamide]
